Key:
RGS4 ubiquitylation = test: ECL assay for N-end rule ubiquitylation of RGS4; assay type: biochemical; details: 1 mM inhibitor; rabbit reticulocyte lysate; 50 μM MG-132; 30° C.; FIG. 2(A),(B)
Description: (§1) Protein was produced from the plasmid DNA in a transcription-translation reaction mixture containing rabbit reticulocyte lysate and SP6 RNA polymerase (TNT SP6 Quick Mix, Promega) and that was further supplemented with 20 μM methionine, 8-30 μg/ml plasmid DNA, 20 μg/ml biotinylated Lys-tRNA (transcend tRNA, Promega), and 50 μM of the proteosome inhibitor MG-132 (Calbiochem) in a total volume of 12.5 μl. Ubiquitylation of newly synthesized proteins occurred in the same reaction mixtures and was driven by the ubiquitylation system present in reticulocyte lysates. An ECL-based ubiquitylation assay (described below) was used to determine if the newly synthesized protein was ubiquitylated. […]
(§2) The reactions were allowed to proceed for a desired period of time at 30° C. In some experiments, several reaction time points were analyzed. […] Thereafter the plate was washed three times with 20 mM Tris-HCl, 0.004% Triton X-100 followed by addition of 150 μl of a buffered solution containing tripropylamine (MSD Read Buffer, Meso-Scale Discovery, Gaithersburg Md.) into each well. ECL signals from labels bound to the electrode surfaces were measured using a Sector HTS instrument. […]

tau ubiquitylation = test: ECL assay for N-end rule ubiquitylation of tau; assay type: biochemical; details: 1 mM inhibitor; rabbit reticulocyte lysate; 50 μM MG-132; 30° C.; FIG. 3(A),(B)
Description: as §1, §2

aprataxin ubiquitylation = test: ECL assay for N-end rule ubiquitylation of aprataxin; assay type: biochemical; details: 1 mM inhibitor (equivalent concentrations); rabbit reticulocyte lysate; 50 μM MG-132; 30° C.; FIG. 4(A),(B)
Description: as §1
(§3) The reactions were allowed to proceed for a desired period of time at 30° C. In some experiments, several reaction time points were analyzed. […] Thereafter the plate was washed three times with 20 mM Tris-HCl, 0.004% Triton X-100 followed by addition of 150 μl of a buffered solution containing tripropylamine (MSD Read Buffer, Meso-Scale Discovery, Gaithersburg Md.) into each well. ECL signals from labels bound to the electrode surfaces were measured using a Sector HTS instrument.
Aprataxin was produced using IMAGE clone #3994375 and analyzed for its ability to act as an N-end rule substrate by ECL assay and by gel electrophoresis as described in the Materials and Methods.

[1] = test system: synaptotagmin-like protein 2 ubiquitylation; test: ECL assay for N-end rule ubiquitylation of synaptotagmin-like protein 2; assay type: biochemical; details: 1 mM inhibitor; rabbit reticulocyte lysate; 50 μM MG-132; 30° C.; FIG. 5(A),(B)
Description: as §1, §3
Synaptotagmin-like protein 2 was produced using IMAGE clone #3887550 and analyzed for its ability to act as an N-end rule substrate by ECL assay and by gel electrophores is as described in the Materials and Methods.

HMGN2 ubiquitylation = test: ECL assay for N-end rule ubiquitylation of HMGN2; assay type: biochemical; details: 1 mM inhibitor; rabbit reticulocyte lysate; 50 μM MG-132; 30° C.; FIG. 6(A),(B)
Description: as §1, §3
High Mobility Group Chromosomal Protein 17 (now renamed HMGN2) was produced using IMAGE clone #3455121 and analyzed for its ability to act as an N-end rule substrate by ECL assay as described in Materials and Methods. […]

cdc6 ubiquitylation = test: ECL assay for N-end rule ubiquitylation of CDC6; assay type: biochemical; details: 1 mM inhibitor; rabbit reticulocyte lysate; 50 μM MG-132; 30° C.; FIG. 7(A),(B)
Description: as §1, §3
Cell Cycle Controller cdc6 was produced using IMAGE clone #3867414 and analyzed for its ability to act as an N-end rule substrate by ECL assay and by gel electrophoresis as described in the Materials and Methods.

HSPC144 ubiquitylation = test: ECL assay for N-end rule ubiquitylation of HSPC144; assay type: biochemical; details: 1 mM inhibitor; rabbit reticulocyte lysate; 50 μM MG-132; 30° C.; FIG. 8(A),(B)
Description: as §1, §3
HSPC144 was produced using IMAGE clone #3907737 and analyzed for its ability to act as an N-end rule substrate by ECL assay as described in the Materials and Methods.

PinX1 ubiquitylation = test: ECL assay for N-end rule ubiquitylation of PinX1; assay type: biochemical; details: 1 mM inhibitor; rabbit reticulocyte lysate; 50 μM MG-132; 30° C.; FIG. 9(A),(B)
Description: as §1, §3
PinX1 was produced using IMAGE clone #3911679 and analyzed for its ability to act as an N-end rule substrate by ECL assay as described in the Materials and Methods.

HMGN3 ubiquitylation = test: ECL assay for N-end rule ubiquitylation of HMGN3; assay type: biochemical; details: 1 mM inhibitor; HMGN3 from clones #3890883 and #4749335, effect most pronounced for clone #4749335; rabbit reticulocyte lysate; 50 μM MG-132; 30° C.; FIG. 10
Description: as §1, §3
HMGN3 was produced using IMAGE clones #3890883 and #4749335 and analyzed for its ability to act as an N-end rule substrate by ECL assay as described in Materials and Methods.

[2] = test system: RGS4 ubiquitin/proteosome degradation via N-end rule pathway; test: Denaturing gel analysis of N-end rule-dependent degradation of RGS4; assay type: biochemical, rabbit; details: [14C]-lysine, MG-132 omitted, SDS-PAGE time course, 30° C.; FIG. 2(C)
Description: Proteins were synthesized as described in the previous section except that biotinylated Lys-tRNA was substituted with [^14C]-lysine, and MG-132 was omitted. The reactions were incubated at 30° C. for indicated times. They were stopped by transferring of aliquots of reactions into SDS-sample buffer. The samples were heated for 5 min at 95° C. and fractionated by SDS-PAGE on 4-20% gradient polyacrylamide gels. Gels were soaked in Amplify™ fluorographic reagent (Amersham Pharmacia Biotech), dried and exposed to X-ray films.
RGS4 was produced and characterized as an N-end rule substrate as described in the Materials and Methods section. RGS4 is a known Type 1 N-end rule ubiquitylation substrate (Davydov and Varshavsky, 2000, J. Biol. Chem., 275: 22931).

Substance	% of RGS4 ubiquitylation in the presence of specific N-end rule inhibitors compared to the reaction in the absence of the inhibitors (RGS4 ubiquitylation)	% of tau ubiquitylation in the presence of specific N-end rule inhibitors compared to the reaction in the absence of the inhibitors (tau ubiquitylation)	% of aprataxin ubiquitylation in the presence of specific N-end rule inhibitors compared to the reaction in the absence of the inhibitors (aprataxin ubiquitylation)	% of synaptotagmin-like protein 2 ubiquitylation in the presence of specific N-end rule inhibitors compared to the reaction in the absence of the inhibitors [1]	% of HMGN2 ubiquitylation in the presence of specific N-end rule inhibitors compared to the reaction in the absence of the inhibitors (HMGN2 ubiquitylation)	% of cdc6 ubiquitylation in the presence of specific N-end rule inhibitors compared to the reaction in the absence of the inhibitors (cdc6 ubiquitylation)	% of HSPC144 ubiquitylation in the presence of specific N-end rule inhibitors compared to the reaction in the absence of the inhibitors (HSPC144 ubiquitylation)	% of PinX1 ubiquitylation in the presence of specific N-end rule inhibitors compared to the reaction in the absence of the inhibitors (PinX1 ubiquitylation)	% of HMGN3 ubiquitylation in the presence of specific N-End Rule inhibitors compared to the reaction in the absence of the inhibitors (HMGN3 ubiquitylation)	accumulation of the C-terminal fragment of RGS4 having the N-terminal Met removed (autoradiogram) [2]
Arg-β-Ala	inhibit RGS4 ubiquitylation to a similar extent	inhibit tau ubiquitylation to a similar extent	inhibit aprataxin ubiquitylation to a similar extent	little to no effect	inhibit HMGN2 ubiquitylation to a similar extent	inhibit cdc6 ubiquitylation to a similar extent	inhibit HSPC ubiquitylation to a similar extent	inhibit PinX1 ubiquitylation to a similar extent	inhibit HMGN3 ubiquitylation to a greater extent	time dependent accumulation exclusively in the presence of Arg-β-Ala inhibitor
Trp-Ala	little to no effect	little to no effect	little to no effect	inhibit synaptotagmin-like protein 2 ubiquitylation to a similar extent	little to no effect	smaller effect	no effect	no effect	little effect	–

From US8530408B2, “Substrates of N-end rule ubiquitylation and methods for measuring the ubiquitylation of these substrate” (Meso Scale Technologies LLC, priority 2002, dated 2013)
